Results from patent US20130252983A1, “ACTIVATING PHOSPHORYLATION SITE ON GLUTAMINASE C” (CORNELL UNIVERSITY, priority 2010, published 2013).

Key:
[1] = test system: NIH 3T3 cells expressing oncogenic Dbl; test: Dbl-induced cellular transformation (focus formation, growth in low serum, soft agar); type: cell-based, mouse
Description: FIGS. 1A-E illustrate that the small molecule 968 inhibits cellular transformation. […] Cells were fixed and stained with crystal violet for counting of foci. Right: 968 was serially diluted (10, 5, 2.5, and 1.25 μM) and evaluated for its ability to inhibit focus formation. […] After 6 days, the cells were counted. 100% represents the number of Dbl-transformed cells counted in the absence of 968 (27.5×10^4 cells). Data represent the average of 3 experiments (±s.d.). […] At the indicated times, the cells were counted. Data represent the average of 3 experiments (±s.d.).
FIGS. 2A-G illustrate effects of 968 on the transforming activity of constitutively active Rho GTPases and human breast cancer cells. […] Cells were scored after 14 days and plotted as the percentage of the total number of colonies greater than 50 μm in diameter. Data represent the average of 3 experiments (±s.d.). […] Data represent the average of 3 experiments (±s.d.). […] Data represent the average of 3 experiments (±s.d.). […] After 24 hours at 37° C., the migratory cells were fixed, stained with GIEMSA, and counted. Data represent the average of 3 experiments (±s.d.). […] Data represent the average of 3 experiments (±s.d.). […] Data represent the average of 3 experiments (±s.d.). […] Data represent the average of 3 experiments (±s.d.).
FIGS. 5A-C illustrate comparative abilities of 968 and other benzo[a]phenanthridinones to inhibit the transforming activity of oncogenic Dbl and H-Ras. […] Histograms show the relative levels of Dbl-induced focus formation for the different treatments, compared to Dbl-induced focus formation measured in the presence of DMSO (i.e. solvent control). Data represent the average of 3 experiments (mean±s.d.). […] Histograms show the relative levels of Ras(G12V)-induced focus formation measured for the different treatments, compared to Ras(G12V)-induced focus formation measured in the presence of DMSO (solvent control). Data represent the average of 3 experiments (mean±s.d.). FIG. 5C NIH 3T3 cells stably expressing H-Ras(G12V) that were cultured in DMEM supplemented with 1% calf serum, with the indicated amounts of 968. After 6 days, cells are trypsinized and counted. 100% represents the number of cells counted in the absence of 968, i.e. 26×10^4 cells. Data represent the average of 3 experiments (mean±s.d.).

[2] = test system: GA activity of MDA-MB231 cells; test: GA activity in mitochondrial fractions of treated MDA-MB231 cells; type: cell-based, human; conditions: 10 μM, 48 hours
Description: 100%=620 moles of glutamine hydrolyzed per minute per mole of enzyme. Data represent the average of 3 experiments (±s.d.). […] Following precipitation of the beads and re-suspension, the samples were analyzed by Western blotting with anti-V5 antibody. […] Data represent the average of 3 experiments (±s.d.). […] Data represent the average of 3 experiments (±s.d.). […] Data represent the average of 3 experiments (±s.d.). FIG. 3E NIH 3T3 cells transiently expressing Dbl were assayed for focus formation in the presence of 10 μM 968 alone or together with 7 mM dimethyl α-ketoglutarate. […] 100%=680 nM glutamine hydrolyzed per minute per 10^5 cells. Data are the average of 3 experiments (±s.d.). […] 100%=750 nM glutamine hydrolyzed per minute per 10^5 cells. Data represent the average of 3 experiments (±s.d.).
Mitochondrial preparations were obtained using the mitochondria isolation kit from QIAGEN (Cat #37612). A suspension containing 2×10^7 cells was transferred into a 50 ml conical tube and centrifuged at 500×g for 10 minutes at 4° C. The pellets were resuspended in 2 ml of ice-cold lysis buffer (supplied by QIAGEN) and incubated for 10 minutes at 4° C. using an end-over-end shaker. […]

CN(C)c1ccc(C2Nc3ccc4ccccc4c3C3=C2C(=O)CC(C)(C)C3)cc1Br (stereo not shown) [Compound 968, 5-[3-bromo-4-(dimethylamino)phenyl]-2,2-dimethyl-2,3,5,6-tetrahydrobenzo[a]]
Dbl-induced colony formation in soft agar ([1]; 10 μM): blocked | potency against Dbl-induced transformation compared to oncogenic H-Ras ([1]; focus formation in NIH 3T3 cells or growth in low serum): more potent inhibitor of Dbl-induced transformation | concentration at which active in blocking Dbl-induced transformation ([1]; focus-forming assays or growth in low serum): 1 to 10 µM | basal GA activity [2]: sensitive to 968
